Literature values in patent US20050113573A1, “Nitroso compounds to treat ischemia” (priority 2003, published 2005).

How the values were obtained:
platelet adhesion = details: pigs
neointimal proliferation = details: rat
cerebral infarcts = details: versus vehicle treated animals
rabbit iliac arteries = rabbit iliac arteries after balloon angioplasty
[1] = test system: ischemically injured livers; details: severe ischemia/reperfusion
[2] = test system: smooth muscle cell proliferation; details: pigs
[3] = 700 stable coronary patients, treated before the angioplasty
femoral arteries = details: hypercholesterolemic mice, prolonged treatment
[4] = test system: intimal proliferation and platelet deposition; details: rabbits, local administration, after vascular arterial balloon injury

In the case of `N=c1c[n+](N2CCOCC2)[n-]o1` [3-morpholino-sydnonimine], the “effect on platelet adhesion” value (platelet adhesion) is listed as “antiadhesive effects”.
For `CC(C(=O)OCCCCO[N+](=O)[O-])c1ccc(-c2ccccc2)c(F)c1` (stereo not shown) [HCT-1026], the neointimal proliferation (neointimal proliferation) is given as “reduction in the neointimal proliferation” and the nitrite/nitrate plasma levels (neointimal proliferation) is given as “increase in nitrite/nitrate plasma levels”.
For `N=C(N)NCCC[C@H](N)C(=O)O` [L-arginine], the cerebral infarcts (cerebral infarcts) is listed as “smaller cerebral infarcts than those in vehicle treated animals”, the neointimal area (rabbit iliac arteries) is listed as “significant reduction of the neointimal area” and the “liver function, neutrophil infiltration and animal survival after liver ischemia/reperfusion injury” value [1] is listed as “beneficial for the liver after severe ischemia/reperfusion”.
In the case of `CCOC(=O)[N-]c1cn(N2CCOCC2)n[o+]1` [molsidomine], the neointimal area (rabbit iliac arteries) is listed as “significant reduction of the neointimal area”, the “smooth muscle cell proliferation following balloon angioplasty” value [2] is listed as “inhibits smooth muscle cell proliferation following balloon angioplasty” and the clinical outcome [3] is listed as “no effect on the clinical outcome”. The long-term angiographic result [3] was “modest improvement in the long-term angiographic result”.
For `CC(=O)Oc1ccccc1C(=O)Oc1cccc(CO[N+](=O)[O-])c1` [nitric oxide releasing aspirin], the “vascular inflammation and apoptosis during vascular remodeling” value (femoral arteries) is given as “reduced the vascular inflammation and promoted apoptosis”.
In the case of “S-nitroso-bovine serum albumin: protein adduct of nitric oxide, locally delivered”, the “intimal proliferation and platelet deposition” value [4] is given as “inhibited intimal proliferation and platelet deposition”.
For “poly thiolated form of bovine serum albumin: poly thiolated form of bovine serum albumin modified to include several S-nitrosothiol groups”, the “intimal proliferation and platelet deposition” value [4] is given as “inhibited intimal proliferation and platelet deposition”.
